Like-named read-outs stand apart in the source and are kept apart here.
How the values were obtained:
[1] = target: T1, AchE (Rattus norvegicus, UniProt P37136); assay: hydrolysis of 14C-labeled compound in 20% rat brain cortex homogenate, radio TLC, with/without BW284c51; conditions: for specificity for AchE in hydrolysis reaction: 14C-labeled compound, from inhibition test with BW284c51
Method: Rat brain cortex was processed into a 20% (w/v) homogenate by use of 0.9% NaCl-10 mM phosphate buffer (pH 7.4).

[2] = target: T2, central AchE (Rattus norvegicus, UniProt P37136); assay: radioactivity distribution in the rat brain by quantitative autoradiography after intravenous administration; conditions: 14C-labeled 13b, male white rat, i.v.
T2 sequence (P37136 32-614): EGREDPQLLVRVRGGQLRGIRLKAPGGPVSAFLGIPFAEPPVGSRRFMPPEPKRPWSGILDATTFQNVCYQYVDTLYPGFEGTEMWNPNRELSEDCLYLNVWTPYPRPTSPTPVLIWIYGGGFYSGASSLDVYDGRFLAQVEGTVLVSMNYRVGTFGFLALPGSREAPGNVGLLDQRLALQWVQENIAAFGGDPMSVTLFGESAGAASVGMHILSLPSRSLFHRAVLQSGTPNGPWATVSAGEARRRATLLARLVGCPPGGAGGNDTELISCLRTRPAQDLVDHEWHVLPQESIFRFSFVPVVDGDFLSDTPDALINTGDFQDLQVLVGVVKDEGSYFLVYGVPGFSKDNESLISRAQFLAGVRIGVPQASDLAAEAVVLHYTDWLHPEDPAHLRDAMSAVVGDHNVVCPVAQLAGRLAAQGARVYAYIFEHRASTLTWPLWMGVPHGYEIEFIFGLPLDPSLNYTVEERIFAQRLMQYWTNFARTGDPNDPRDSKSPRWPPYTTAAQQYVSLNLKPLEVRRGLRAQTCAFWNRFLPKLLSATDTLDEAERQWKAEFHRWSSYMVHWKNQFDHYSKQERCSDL

[3] = target: T2, central AchE; assay: radioactivity distribution in the rat brain by dissection method after intravenous administration; format: in vivo; design: from tissue; host or cells: brain of living male rats (in vivo); conditions: male wistar rats, i.v.
Method: After a geometrical isomer (50b) of compound No. 50 obtained in Example 8 (1) had been intravenously administered to groups of male wistar rats, radioactivity distribution in the rat brain was assayed by dissection method.

[4] = target: T1, AchE; format: biochemical; design: Cerebral cortical tissues were obtained from rats, weighed and homogenized; from tissue; host or cells: rat cerebral cortex homogenate
Method: Cerebral cortical tissues were obtained from rats, weighed and homogenized (90 mg tissue/ml) in 0.1 M phosphate buffer, pH7.4. […]

[5] = target: T2, central AchE; assay: radioactivity distribution in the rat brain by autoradiography after intravenous administration; format: in vivo; design: from tissue; host or cells: brain of living male rats (in vivo); conditions: male white rat, i.v.; for migration to the brain: 14C-labeled, autoradiography
[6] = immediately after administration
[7] = thirty minutes or more after administration
[8] = fifteen minutes or more after administration
[9] = thirty minutes after administration

## CC(=O)OC1CCN(C)CC1C(O)CC/C=C/I (single isomer, unassigned) [13a]
[1]; rat brain cortex homogenate
  specificity for AchE in hydrolysis reaction: 80.4%

## CC(=O)OC1CCN(C)CC1C(O)CC/C=C/I (single isomer, unassigned) [13b]
[1]; rat brain cortex homogenate
  specificity for AchE in hydrolysis reaction: 91.8%
  reactivity and specificity for AchE (in words): excellent reactivity and specificity for AchE
[1]; rat, 20% (w/v) brain cortex homogenate, pH 7.4, half-life of hydrolysis, 14C-labeled (N-methyl) compound, rat brain cortex homogenate, 37°C
  half-life: ~5 min
[2]; [6]
  radioactivity distribution, brain cortex: high
  radioactivity distribution, corpus striatum: low
[2]; [7]
  accumulation of radioactivity, cerebellum: low accumulation of radioactivity
  accumulation of radioactivity, striatum: high accumulation of radioactivity

## COCOC(CC/C=C/[123I])C1CN(C)CCC1OC(C)=O (single isomer, unassigned) [50b]
[3]; [8]
  accumulation of radioactivity, cerebellum: accumulation of radioactivity was low
  accumulation of radioactivity, striatum: high accumulation of radioactivity
[3]; [6]
  radioactivity distribution, brain cortex: high
  radioactivity distribution, striatum: low
[4]; 123I-labeled compound, rat cerebral cortical homogenate, 37°C, from inhibition by BW284c51
  specificity for AchE: 88.6%

## C=CC[N+](C)(C)c1ccc(CCC(=O)CCc2ccc([N+](C)(C)CC=C)cc2)cc1.[Br-].[Br-] [BW284c51, reference compound]
[1]; hydrolysis of 14C-labeled compound No. 13 in rat brain cortex homogenate
  hydrolysis on addition of BW284c51: considerably inhibited
[4]; hydrolysis of 123I-labeled 50b in rat cerebral cortical homogenate
  hydrolysis on addition of BW284c51: considerably inhibited

## O.[14CH3]N1CCC(C(O)/C=C/I)C(O)C1 (stereo not drawn) [compound No. 46, N-^14C-methyl-3-hydroxy-4-(l-hydroxy-3-iodo-2-propenyl)piperidine]
[5]
  migration to the brain: hardly migrated to the brain

## CC(=O)OC1CN([14CH3])CCC1C(O)/C=C/I (stereo not shown) [compound No. 47, N-^14C-methyl-3-acetoxy-4-(1-hydroxy-3-iodo-2-propenyl)piperidine]
[5]
  migration to the brain: commonly migrated to the brain
[5]; 5 minutes after administration
  radioactivity distribution, brain cortex: high
  radioactivity distribution, cerebellum: low
  radioactivity distribution, corpus striatum: somewhat high
[5]; [9]
  accumulation of radioactivity, cerebellum: low accumulation of radioactivity
  accumulation of radioactivity, corpus striatum: high accumulation of radioactivity

Source: patent publication US6509003B2, “Reagents for the determination of cerebral regional acetylcholinesterase activity” (Daiichi Pure Chemicals Co., Ltd., priority 1997, dated 2003)
